We go through 36 molecules from patent US11053230B2, “3-hydroxy-imidazolidin-4-one compounds as inhibitors of indoleamine 2,3-dioxygenase” (Netherlands Translational Research Center B.V., priority 2017, dated 2021).

“And” between values parts separate entries of the source, which are not always exact repeats. Equal entries are not always repeated.

In the assay the target is T1, IDO1 (Homo sapiens, UniProt P14902).
T1 construct: Recombinant full-length IDO1 (Seegers, N., et al.) and all other assay components were diluted in IDO1 reaction buffer; made in house
T1 sequence (P14902 whole entry): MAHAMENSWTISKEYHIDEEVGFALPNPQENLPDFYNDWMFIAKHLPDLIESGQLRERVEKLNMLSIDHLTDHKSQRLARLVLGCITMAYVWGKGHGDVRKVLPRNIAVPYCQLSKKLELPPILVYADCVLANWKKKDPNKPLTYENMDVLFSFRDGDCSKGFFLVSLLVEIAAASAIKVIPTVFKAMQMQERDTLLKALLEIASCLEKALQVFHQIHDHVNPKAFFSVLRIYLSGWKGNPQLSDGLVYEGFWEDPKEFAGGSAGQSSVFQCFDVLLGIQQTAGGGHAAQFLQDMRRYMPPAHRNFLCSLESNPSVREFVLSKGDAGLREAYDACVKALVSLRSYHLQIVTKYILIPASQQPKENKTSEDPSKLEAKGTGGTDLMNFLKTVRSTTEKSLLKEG
Nature of the assay: Biochemical IDO1 assay (NFK GreenScreen). As to conditions: NFK GreenScreen; 25 nM IDO1, 100 μM L-tryptophan; read-out: IC50, inhibitory potency on IDO1. The gist of the method:
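Recombinant full-length IDO1 in 50 mM NaH2PO4 pH 7.0 with 0.05% Tween-20 and 1% glycerol converted 100 μM L-tryptophan (final) over 60 min at room temperature with compound, 0.3% DMSO.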

As to `CC(C)C=Cc1cc(F)c(C(=O)N2CC(=O)N(O)C2c2cc(Br)cs2)c(F)c1` (stereo not drawn) [Example 94, 2-(4-Bromo-2-thienyl)-1-[2,6-difluoro-4-[3-methylbut-1-enyl]benzoyl]-3-hydroxy-imidazolidin-4-one], the IC50 is not above 1 µM. The figure for `CC(C)CCc1cc(F)c(C(=O)N2CC(=O)N(O)C2c2cc(Br)cs2)c(F)c1` (stereo not drawn) [Example 95, 2-(4-Bromo-2-thienyl)-1-(2,6-difluoro-4-isopentyl-benzoyl)-3-hydroxy-imidazolidin-4-one] is ≤ 5 µM and 1 to 5 µM; for `O=C1CN(C(=O)c2c(F)cc(-c3cn[nH]c3)cc2F)C(c2cc(Br)cs2)N1O` (stereo not drawn) [Example 96, 2-(4-bromo-2-thienyl)-1-[2,6-difluoro-4-(1H-pyrazol-4-yl)benzoyl]-3-hydroxy-imidazolidin-4-one] it is not above 1 µM.

As for `CN(C)c1cc(F)c(C(=O)N2CC(=O)N(O)C2c2cc(Br)cs2)c(F)c1` (stereo not drawn) [Example 97, 2-(4-Bromo-2-thienyl)-1-[4-(dimethylamino)-2,6-difluoro-benzoyl]-3-hydroxy-imidazolidin-4-one], the IC50 was ≤ 5 µM and 1 to 5 µM. Regarding `O=C1CN(C(=O)c2ccccc2F)C(c2csc(Br)c2)N1O` (stereo not drawn) [Example 98, 2-(5-Bromo-3-thienyl)-1-(2-fluorobenzoyl)-3-hydroxy-imidazolidin-4-one], the IC50 is not above 1 µM. Consider `O=C1CN(C(=O)c2c(F)cccc2Cl)C(c2csc(Br)c2)N1O` (stereo not drawn) [Example 99, 2-(5-Bromo-3-thienyl)-1-(2-chloro-6-fluoro-benzoyl)-3-hydroxy-imidazolidin-4-one], for which the IC50 was not above 1 µM. Consider `O=C1CN(C(=O)c2c(F)cccc2C(F)(F)F)C(c2csc(Br)c2)N1O` (stereo not drawn) [Example 100, 2-(5-Bromo-3-thienyl)-1-[2-fluoro-6-(trifluoromethyl)benzoyl]-3-hydroxy-imidazolidin-4-one], for which the IC50 was ≤ 5 µM and 1 to 5 µM.

Take `O=C1CN(C(=O)c2c(F)ccc(Br)c2F)C(c2csc(Br)c2)N1O` (stereo not drawn) [Example 101, 1-(3-Bromo-2,6-difluoro-benzoyl)-2-(5-bromo-3-thienyl)-3-hydroxy-imidazolidin-4-one]: the IC50 was not above 1 µM. The figure for `Cc1ccc(F)c(C(=O)N2CC(=O)N(O)C2c2csc(Br)c2)c1F` (stereo not drawn) [Example 102, 2-(5-Bromo-3-thienyl)-1-(2,6-difluoro-3-methyl-benzoyl)-3-hydroxy-imidazolidin-4-one] is not above 1 µM. The figure for `O=C1CN(C(=O)c2c(F)ccc(C(F)(F)F)c2F)C(c2csc(Br)c2)N1O` (stereo not drawn) [Example 103, 2-(5-Bromo-3-thienyl)-1-[2,6-difluoro-3-(trifluoromethyl)benzoyl]-3-hydroxy-imidazolidin-4-one] is not above 1 µM; for `COc1ccc(F)c(C(=O)N2CC(=O)N(O)C2c2csc(Br)c2)c1F` (stereo not drawn) [Example 104, 2-(5-Bromo-3-thienyl)-1-(2,6-difluoro-3-methoxy-benzoyl)-3-hydroxy-imidazolidin-4-one] it is not above 1 µM; for `Nc1ccc(F)c(C(=O)N2CC(=O)N(O)C2c2cc(Br)cs2)c1F` (stereo not drawn) [Example 105, 1-(3-Amino-2,6-difluoro-benzoyl)-2-(4-bromo-2-thienyl)-3-hydroxy-imidazolidin-4-one] it is not above 1 µM.

Turning to `O=C1CN(C(=O)c2c(F)ccc([N+](=O)[O-])c2F)C(c2cc(Br)cs2)N1O` (stereo not drawn) [Example 106, 2-(4-Bromo-2-thienyl)-1-(2,6-difluoro-3-nitro-benzoyl)-3-hydroxy-imidazolidin-4-one], the IC50 is not above 1 µM. On to `CS(=O)(=O)Nc1ccc(F)c(C(=O)N2CC(=O)N(O)C2c2cc(Br)cs2)c1F` (stereo not drawn) [Example 107, N-[3-[2-(4-bromo-2-thienyl)-3-hydroxy-4-oxo-imidazolidine-1-carbonyl]-2,4-difluoro-phenyl]methanesulfonamide], for which the IC50 is not above 1 µM.

Take `NS(=O)(=O)N1CCC(C(=O)N2CC(=O)N(O)C2c2cc(Br)cs2)CC1` (stereo not drawn) [Example 108, 4-[2-(4-Bromo-2-thienyl)-3-hydroxy-4-oxo-imidazolidine-1-carbonyl]piperidine-1-sulfonamide]: the half-inhibitory concentration (IC50) was ≤ 5 µM and 1 to 5 µM. With `O=C1CN(C(=O)c2c(F)cccc2F)C(c2cc(C3CC3)cs2)N1O` (stereo not drawn) [Example 109, 2-(4-Cyclopropyl-2-thienyl)-1-(2,6-difluorobenzoyl)-3-hydroxy-imidazolidin-4-one] the figure was ≤ 5 µM and 1 to 5 µM; with `[2H]c1sc(C2N(O)C(=O)CN2C(=O)c2c(F)cccc2F)cc1Br` (stereo not drawn) [Example 111, 2-(4-Bromo-5-deuterio-2-thienyl)-1-(2,6-difluorobenzoyl)-3-hydroxy-imidazolidin-4-one], not above 1 µM; with `Cc1cc(C2N(O)C(=O)CN2C(=O)c2c(F)cccc2F)sc1Cl` (stereo not drawn) [Example 112, 2-(5-Chloro-4-methyl-2-thienyl)-1-(2,6-difluorobenzoyl)-3-hydroxy-imidazolidin-4-one], not above 1 µM. With `Cc1sc(C2N(O)C(=O)CN2C(=O)c2c(F)cccc2F)cc1Br` (stereo not drawn) [Example 113, 2-(4-bromo-5-methyl-2-thienyl)-1-(2,6-difluorobenzoyl)-3-hydroxy-imidazolidin-4-one] the figure was not above 1 µM. With `[2H]C([2H])([2H])c1sc(C2N(O)C(=O)CN2C(=O)c2c(F)cccc2F)cc1Br` (stereo not drawn) [Example 114, 2-[4-Bromo-5-(trideuteriomethyl)-2-thienyl]-1-(2,6-difluorobenzoyl)-3-hydroxy-imidazolidin-4-one] the figure was not above 1 µM; with `O=C1CN(C(=O)c2c(F)cccc2F)C(c2cc(Br)c(Cl)s2)N1O` (stereo not drawn) [Example 115, 2-(4-Bromo-5-chloro-2-thienyl)-1-(2,6-difluorobenzoyl)-3-hydroxy-imidazolidin-4-one], not above 1 µM. As for `O=C1CN(C(=O)c2c(F)cccc2F)C(c2cc(I)c(F)s2)N1O` (stereo not drawn) [Example 116, 1-(2,6-Difluorobenzoyl)-2-(5-fluoro-4-iodo-2-thienyl)-3-hydroxy-imidazolidin-4-one], the IC50 was not above 1 µM.

With `N#Cc1cc(F)c(C(=O)N2CC(=O)N(O)C2c2cc(Br)cs2)c(F)c1` (stereo not drawn) [Example 117, 4-[2-(4-Bromo-2-thienyl)-3-hydroxy-4-oxo-imidazolidine-1-carbonyl]-3,5-difluoro-benzonitrile], the IC50 was not above 1 µM. The figure for `O=C1CN(C(=O)c2c(F)ccc(-c3ccccc3)c2F)C(c2cc(Br)cs2)N1O` (stereo not drawn) [Example 122, 2-(4-Bromo-2-thienyl)-1-(2,6-difluoro-3-phenyl-benzoyl)-3-hydroxy-imidazolidin-4-one] is not above 1 µM; for `O=C1CN(C(=O)c2c(F)ccc(-c3ccccc3)c2F)C(c2csc(Br)c2)N1O` (stereo not drawn) [Example 123, 2-(5-Bromo-3-thienyl)-1-(2,6-difluoro-3-phenyl-benzoyl)-3-hydroxy-imidazolidin-4-one] it is not above 1 µM; for `Cn1cc(-c2ccc(F)c(C(=O)N3CC(=O)N(O)C3c3csc(Br)c3)c2F)cn1` (stereo not drawn) [Example 124, 2-(5-Bromo-3-thienyl)-1-[2,6-difluoro-3-(1-methylpyrazol-4-yl)benzoyl]-3-hydroxy-imidazolidin-4-one] it is not above 1 µM. The figure for `Cn1cc(-c2ccc(F)c(C(=O)N3CC(=O)N(O)C3c3cc(Br)cs3)c2F)cn1` (stereo not drawn) [Example 125, 2-(4-Bromo-2-thienyl)-1-[2,6-difluoro-3-(1-methylpyrazol-4-yl)benzoyl]-3-hydroxy-imidazolidin-4-one] is not above 1 µM; for `O=C1CN(C(=O)c2c(F)ccc(B(O)O)c2F)C(c2cc(Br)cs2)N1O` (stereo not drawn) [Example 126, [3-[2-(4-Bromo-2-thienyl)-3-hydroxy-4-oxo-imidazolidine-1-carbonyl]-2,4-difluoro-phenyl]boronic acid] it is ≤ 5 µM and 1 to 5 µM. The figure for `C#Cc1ccc(F)c(C(=O)N2CC(=O)N(O)C2c2cc(Br)cs2)c1F` (stereo not drawn) [Example 127, 2-(4-Bromo-2-thienyl)-1-(3-ethynyl-2,6-difluoro-benzoyl)-3-hydroxy-imidazolidin-4-one] is not above 1 µM; for `C=Cc1ccc(F)c(C(=O)N2CC(=O)N(O)C2c2cc(Br)cs2)c1F` (stereo not drawn) [Example 128, 2-(4-Bromo-2-thienyl)-1-(2,6-difluoro-3-vinyl-benzoyl)-3-hydroxy-imidazolidin-4-one] it is not above 1 µM; for `CC(=O)NCC#Cc1cc(F)c(C(=O)N2CC(=O)N(O)C2c2cc(Br)cs2)c(F)c1` (stereo not drawn) [Example 130, N-[3-[4-[2-(4-Bromo-2-thienyl)-3-hydroxy-4-oxo-imidazolidine-1-carbonyl]-3,5-difluoro-phenyl]prop-2-ynyl]acetamide] it is not above 1 µM. As to `O=C1CN(C(=O)c2c(F)ccc(-c3cccs3)c2F)C(c2cc(Br)cs2)N1O` (stereo not drawn) [Example 131, 2-(4-Bromo-2-thienyl)-1-[2,6-difluoro-3-(2-thienyl)benzoyl]-3-hydroxy-imidazolidin-4-one], the IC50 is not above 1 µM. The figure for `O=C1CN(C(=O)c2c(F)ccc(-c3ccc(F)s3)c2F)C(c2cc(Br)cs2)N1O` (stereo not drawn) [Example 132, 2-(4-Bromo-2-thienyl)-1-[2,6-difluoro-3-(5-fluoro-2-thienyl)benzoyl]-3-hydroxy-imidazolidin-4-one] is not above 1 µM; for `Cc1ccccc1-c1ccc(F)c(C(=O)N2CC(=O)N(O)C2c2cc(Br)cs2)c1F` (stereo not drawn) [Example 133, 2-(4-Bromo-2-thienyl)-1-[2,6-difluoro-3-(o-tolyl)benzoyl]-3-hydroxy-imidazolidin-4-one] it is not above 1 µM. The figure for `O=C1CN(C(=O)c2c(F)ccc(-c3cccc4ccccc34)c2F)C(c2cc(Br)cs2)N1O` (stereo not drawn) [Example 134, 2-(4-Bromo-2-thienyl)-1-[2,6-difluoro-3-(1-naphthyl)benzoyl]-3-hydroxy-imidazolidin-4-one] is not above 1 µM; for `O=C1CN(C(=O)c2c(F)ccc(-c3ccc4ccccc4c3)c2F)C(c2cc(Br)cs2)N1O` (stereo not drawn) [Example 135, 2-(4-Bromo-2-thienyl)-1-[2,6-difluoro-3-(2-naphthyl)benzoyl]-3-hydroxy-imidazolidin-4-one] it is not above 1 µM.
